# Experimental data taken from patent publication US6228843A (priority 2000, dated 2001).
# What was measured:
# [1] = biological target: T1, PKC-α (Bos taurus, UniProt P04409); assay: PKC isozyme expression by Western blot: PKC-α degradation; assay type: cell-based, bovine
# T1 construct: proteolytic degradation of PKC-α in smooth muscle cells; endogenous in cells; host or cells: adult bovine pulmonary artery smooth muscle cells (PA SMC)
# Protocol: (§1) Hypoxic growth was induced by priming with the PKC activator, 10 nM PMA. Proliferative response was measured by ^3 H-thymidine incorporation and cell counts. Isozyme expression was measured by Western blot.
# [2] = biological target: T2, PKC βI (Bos taurus, UniProt P05126); assay: PKC isozyme expression by Western blot: βI; assay type: cell-based, bovine; conditions: adult PA SMC
# T2 construct: isozyme expressed in these adult cells (βI); endogenous in cells; host or cells: adult bovine pulmonary artery smooth muscle cells (PA SMC)
# T2 sequence (P05126 whole entry): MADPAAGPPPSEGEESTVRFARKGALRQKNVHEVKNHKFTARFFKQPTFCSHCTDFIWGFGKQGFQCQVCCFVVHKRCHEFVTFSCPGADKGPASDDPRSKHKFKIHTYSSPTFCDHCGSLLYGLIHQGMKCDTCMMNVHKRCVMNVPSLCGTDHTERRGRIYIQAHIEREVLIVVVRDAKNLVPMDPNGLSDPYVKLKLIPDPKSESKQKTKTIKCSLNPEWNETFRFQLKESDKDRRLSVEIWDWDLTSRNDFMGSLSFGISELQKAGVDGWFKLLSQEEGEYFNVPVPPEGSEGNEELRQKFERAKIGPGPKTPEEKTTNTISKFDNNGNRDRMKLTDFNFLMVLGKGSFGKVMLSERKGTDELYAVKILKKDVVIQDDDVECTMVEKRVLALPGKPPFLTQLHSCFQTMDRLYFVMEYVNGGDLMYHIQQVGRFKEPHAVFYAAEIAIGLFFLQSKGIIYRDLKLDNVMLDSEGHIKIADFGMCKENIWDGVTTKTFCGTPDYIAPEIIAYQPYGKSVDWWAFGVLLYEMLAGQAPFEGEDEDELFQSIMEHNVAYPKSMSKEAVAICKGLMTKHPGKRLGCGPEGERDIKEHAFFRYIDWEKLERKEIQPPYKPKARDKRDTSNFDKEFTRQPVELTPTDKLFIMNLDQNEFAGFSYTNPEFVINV
# Protocol: […]. Hypoxic growth was induced by priming with the PKC activator, 10 nM PMA. Proliferative response was measured by ^3 H-thymidine incorporation and cell counts. Isozyme expression was measured by Western blot. […]. […] […].
# [3] = biological target: T3, PKC-α (Mus musculus, UniProt P20444); assay: PKC-α protein levels in whole lung homogenates of treated mice; assay type: in vivo; conditions: chronic treatment of mice
# T3 construct: PKC-α protein levels in whole lung homogenates; from tissue; host or cells: whole lung homogenates of treated mice
# [4] = tested on: adult bovine pulmonary artery smooth muscle cells; assay type: cell-based
# Protocol: as §1
# [5] = tested on: PKC-α and β; assay: PKC activity in PA SMC preparation; assay type: cell-based, bovine
Compound,threshold concentration to induce PKC-α degradation [1],time at which PKC-α degradation is complete ([1]; 100 nM),time at which PKC-α degradation is first detectable ([1]; 100 nM),dose dependence of PKC-α degradation and hypoxic growth (FIG. 6) ([1]; bovine PA SMC),time dependence of PKC-α degradation (FIG. 5) ([1]; bovine PA SMC),degradation of Ca2+-dependent isozyme βI [2],PKC-α protein levels in whole lung homogenates (FIG. 8) [3],hypoxia-induced PA SMC proliferation (FIG. 4) [4],activity of PKC-α and β (FIG. 4) [5]
CCCC=CC=CC(=O)OC1C(=CC(=O)OC)CC2CC(C(C)O)OC(=O)CC(O)CC3CC(OC(C)=O)C(C)(C)C(O)(CC4CC(=CC(=O)OC)CC(C=CC(C)(C)C1(O)O2)O4)O3 (stereo not drawn) [bryostatin-1],10 nM,≤ 24 h,≤ 1 h,dose-dependent effect,time dependent,No degradation,decreases PKC-α protein levels,–,–
Cn1c2ccccc2c2c3c(c4c5ccccc5n(CCC#N)c4c21)CNC3=O [Go6976],–,–,–,–,–,–,–,inhibits hypoxia-induced PA SMC proliferation,inhibits activity of PKC-α and β
